Source: publication PMC7822874, “Chemoprotective antimalarials identified through quantitative high-throughput screening of Plasmodium blood and liver stage parasites” (Scientific Reports, 2021)

Tested on: Plasmodium falciparum Dd2 asexual blood stage parasites
Assay: microbe, parasite or virus in culture
Set-up: species or system Plasmodium falciparum Dd2 in human erythrocytes; single determination (one 11-point concentration-response curve)
Conditions: Plasmodium falciparum, DD2, Erythrocyte, 72 h

| SMILES | AC50 [µM] |
| --- | --- |
| Cc1cccc(OC(C)C(=O)NCC2(N(C)C)CCCCC2)c1C (stereo not shown) [NCGC00118727-01] | 8.41 |

Same assay, conditions: Plasmodium falciparum, DD2, Erythrocyte, 72 h; read-out: AC50

| SMILES | AC50 [µM] |
| --- | --- |
| Cc1ccc(Cl)cc1N1CCN(C(=O)c2ccc3c(c2)N(Cc2ccccc2F)C(=O)c2ccccc2[S+]3(=O)[O-])CC1 [NCGC00109582-01] | 5.31 |
| CCOc1ccc(CCNC(=O)c2ccc3c(c2)N(Cc2ccccc2F)C(=O)c2ccccc2[S+]3[O-])cc1OCC (stereo not shown) [NCGC00109590-01] | 10.6 |
| COc1ccccc1N1CCN(C(=O)c2ccc3c(c2)N(Cc2cc(C)ccc2C)C(=O)c2ccccc2[S+]3(=O)[O-])CC1 [NCGC00109735-01] | 9.44 |
| Cc1ccc(C)c(CN2C(=O)c3ccccc3[S+](=O)([O-])c3ccc(C(=O)NCCc4ccc(Cl)cc4)cc32)c1 [NCGC00109793-01] | 7.5 |
| CCOC(=O)C1CCCN(C(=O)c2ccc3c(c2)N(Cc2ccccc2)C(=O)c2ccccc2[S+]3(=O)[O-])C1 (stereo not shown) [NCGC00109839-01] | 6.68 |
| CCOc1ccc(NC(=O)CCc2c(C)nc3cc(-c4ccc(Cl)cc4)nn3c2C)cc1 [NCGC00110024-01] | 6.68 |
| COc1ccc(CCNC(=O)CCc2c(C)nc3c(c(C)nn3-c3ccc(C)c(C)c3)c2C)cc1OC [NCGC00110173-01] | 0.668 |
| COc1ccc(C)cc1-n1c(-c2ccc(Cl)cc2)cc2c1CC(C)(C)CC2=O [NCGC00110344-01] | 2.99 |
| CCn1c(=O)c2cc(C(=O)N(CC(C)C)CC(C)C)sc2c2ccccc21 [NCGC00110427-01] | 10.6 |
| Cc1ccc2nc(Cl)c3cc(C(=O)NCCCN4CCC(C)CC4)sc3c2c1 [NCGC00110841-01] | 6.68 |
| CCOc1ccc(-c2cc3nc(C4CCN(C(=O)OC(C)(C)C)CC4)c(C(=O)Nc4ccc(C(=O)OC)cc4)cn3n2)cc1 [NCGC00110849-01] | 4.73 |
| COCCNc1cc(N2CCN(C3CCCCC3)CC2)c2noc3c2c1C(=O)c1ccccc1-3 [NCGC00111067-01] | 15 |
| CCCCCNc1nc2c(-c3ccccc3)nnn2c2ccccc12 [NCGC00111529-01] | 11.9 |
| CCOC(=O)N1CCc2c(sc3c2c(=O)n(-c2ccccc2C(F)(F)F)c(=O)n3Cc2ccccc2C)C1 [NCGC00111905-01] | 13.3 |
| CCOC(=O)N1CCc2c(sc3c2c(=O)n(Cc2ccccc2)c(=O)n3Cc2ccccc2Cl)C1 [NCGC00111943-01] | 4.73 |
| COc1ccc(CCNC(=O)Cn2c(-c3cccs3)cc3cc(F)ccc32)cc1OC [NCGC00111974-01] | 4.73 |
| CCOC(=O)N1CCc2c(sc3c2c(=O)n(CCc2ccccc2)c(=O)n3Cc2c(F)cccc2Cl)C1 [NCGC00111977-01] | 2.66 |
| CSc1cccc(Nc2nc3c([S+](=O)([O-])c4ccccc4)nnn3c3ccc(Cl)cc23)c1 [NCGC00112212-01] | 1.88 |
| CC1CCN(c2nc3c([S+](=O)([O-])c4ccccc4)nnn3c3ccc(Cl)cc23)CC1 [NCGC00112222-01] | 2.66 |
| CC(=O)c1ccc(N2CCN(c3nc4c([S+](=O)([O-])c5ccccc5)nnn4c4ccc(Cl)cc34)CC2)cc1 [NCGC00112340-01] | 3.35 |
| COc1cc2nc(NCc3ccccc3Cl)n3nc(-c4cccnc4)nc3c2cc1OC [NCGC00112532-01] | 2.11 |
| COc1ccccc1NC(=O)CSc1nc2c(oc3ccccc32)c(=O)n1-c1ccc(C)cc1 [NCGC00112704-01] | 15 |
| Cc1cccc(N2CCN(C(=O)CCc3nnc4n(CC(C)C)c(=O)c5ccccc5n34)CC2)c1C [NCGC00112784-01] | 3.35 |
| COc1cc2nc(NCc3ccccc3)n3nc(-c4ccccc4)nc3c2cc1OC [NCGC00112829-01] | 0.422 |
| COc1ccc(CCNc2nc3cc(OC)c(OC)cc3c3nc(-c4ccccc4)nn23)cc1OC [NCGC00112847-01] | 2.37 |

| SMILES | AC50 [µM] |
| --- | --- |
| COc1cc2nc(NCCC(C)C)n3nc(-c4ccccc4)nc3c2cc1OC [NCGC00112851-01] | 0.422 |
| COc1cc2nc(NCc3ccc(C)cc3)n3nc(-c4ccccc4)nc3c2cc1OC [NCGC00112855-01] | 0.266 |
| CCOCCCNc1nc2cc(OC)c(OC)cc2c2nc(-c3ccccc3)nn12 [NCGC00112857-01] | 0.211 |
| COc1cc2nc(NCCc3cccc(C)c3)n3nc(-c4ccccc4)nc3c2cc1OC [NCGC00112859-01] | 0.841 |
| CCOc1ccc(-c2cn3c(n2)sc2cc(C(=O)NC(C)C45CC6CC(CC(C6)C4)C5)ccc23)cc1 (stereo not shown) [NCGC00113230-01] | 5.96 |
| CCC[S+](=O)([O-])c1nc([S+](=O)([O-])c2ccc(C)cc2)c(NCCCOC(C)C)s1 [NCGC00113582-01] | 2.11 |
| Cc1ccc(C(=O)N2CCC(c3c[nH]c4ccccc34)(c3c[nH]c4ccccc34)CC2)cc1 [NCGC00113768-01] | 8.41 |
| COc1ccc(-c2nc(Cn3c(SCc4ccccc4F)nc4ccncc43)c(C)o2)cc1OC [NCGC00113862-01] | 8.41 |
| CCCCN(CCCC)CC(O)Cn1cc(/C=C/C(=O)c2ccccc2)c2ccccc21 (stereo not shown) [NCGC00114887-01] | 1.68 |
| CCCN(CCC)CC(O)Cn1cc(/C=C/C(=O)c2ccc(C)cc2)c2ccccc21 (stereo not shown) [NCGC00114909-01] | 4.73 |
| Cc1oc2ccc(O)c(CN3CCCC(C)C3)c2c1C(=O)Nc1ccccc1 (stereo not shown) [NCGC00115528-01] | 2.11 |
| COc1ccc(NC(=O)c2c(C)oc3ccc(O)c(CN4CCCC(C)C4)c23)cc1Cl (stereo not shown) [NCGC00115530-01] | 0.944 |
| COc1ccc(NC(=O)c2c(C)oc3ccc(O)c(CN4CCN(Cc5ccccc5)CC4)c23)cc1 [NCGC00115648-01] | 2.66 |
| Cc1oc2ccc(O)c(CN3CCN(Cc4ccccc4)CC3)c2c1C(=O)Nc1cccc(Cl)c1C [NCGC00115656-01] | 0.596 |
| Cc1ccc(NC(=O)c2c(C)oc3ccc(O)c(CN4CCCCCC4)c23)c(C)c1 [NCGC00115658-01] | 4.73 |
| COc1ccc(NC(=O)c2c(C)oc3ccc(O)c(CN4CCCCCC4)c23)cc1Cl [NCGC00115677-01] | 1.88 |
| Cc1ccc(NC(=O)c2c(C)oc3ccc(O)c(CN4CCCCCC4)c23)cc1 [NCGC00115683-01] | 2.11 |
| Cc1oc2ccc(O)c(CN3CCCCCC3)c2c1C(=O)Nc1cccc(Cl)c1C [NCGC00115685-01] | 0.841 |
| Cc1ccc(NC(=O)c2c(C)oc3ccc(O)c(CN(C)Cc4ccccc4)c23)c(C)c1 [NCGC00115687-01] | 5.96 |
| Cc1oc2ccc(O)c(CN(C)Cc3ccccc3)c2c1C(=O)Nc1ccccc1 [NCGC00115689-01] | 2.37 |
| Cc1oc2ccc(O)c(CN(C)Cc3ccccc3)c2c1C(=O)Nc1cccc(C(F)(F)F)c1 [NCGC00115691-01] | 2.11 |
| Cc1ccccc1NC(=O)c1c(C)oc2ccc(O)c(CN(C)Cc3ccccc3)c12 [NCGC00115709-01] | 2.37 |
| CCN(Cc1ccccc1)Cc1c(O)ccc2oc(C)c(C(=O)Nc3ccccc3C)c12 [NCGC00115715-01] | 4.73 |
| O=C(Nc1sc2c(c1C(=O)NCc1ccco1)CCCC2)c1cc(=O)c2ccccc2o1 [NCGC00115806-01] | 10.6 |
| CCOc1ccc(-c2nonc2NC(=O)c2ccc(C)cc2)cc1OCC [NCGC00116031-01] | 1.68 |

| SMILES | AC50 [µM] |
| --- | --- |
| CCCOc1ccc(-c2nonc2NC(=O)c2cc(OC)c(OC)c(OC)c2)cc1OCCC [NCGC00116043-01] | 5.96 |
| O=C(c1cccc(Cl)c1)N1CCC(c2nc(O)c3nnn(Cc4ccc(F)cc4F)c3n2)CC1 [NCGC00116055-01] | 5.96 |
| CC(C)(C)c1ccc(C(=O)N2CCCC(c3nc(O)c4nnn(Cc5cccc(F)c5)c4n3)C2)cc1 (stereo not shown) [NCGC00116087-01] | 16.8 |
| Cc1cccc(Cn2nnc3c(O)nc(C4CCCN(C(=O)c5ccc(C(C)(C)C)cc5)C4)nc32)c1 (stereo not shown) [NCGC00116091-01] | 2.66 |
| Cc1ccc(CN2COc3ccc4c(-c5ccccc5)cc(=O)oc4c3C2)cc1 [NCGC00116312-01] | 0.841 |
| Cc1cc2c(c3oc(=O)c4ccccc4c13)CN(Cc1ccc(F)cc1)CO2 [NCGC00116338-01] | 2.66 |
| O=c1cc(-c2ccccc2)c2ccc3c(c2o1)CN(Cc1ccccc1)CO3 [NCGC00116340-01] | 2.66 |
| O=c1cc(-c2ccccc2)c2ccc3c(c2o1)CN(Cc1cccc(Cl)c1)CO3 [NCGC00116370-01] | 0.841 |
| COc1ccc(N2CCN(c3oc(/C=C/c4cc(OC)c(OC)c(OC)c4)nc3C#N)CC2)cc1 [NCGC00116464-01] | 2.66 |
| Cc1ccc([S+](=O)([O-])c2nc([S+](=O)([O-])c3ccccc3)sc2NCCCOC(C)C)cc1 [NCGC00116818-01] | 0.596 |
| CC(C)OCCCNc1sc([S+](=O)([O-])c2ccccc2)nc1[S+](=O)([O-])c1ccc(Cl)cc1 [NCGC00116822-01] | 0.266 |
| Cc1ccccc1OCCSc1nc2ccc(NC(=O)c3ccccc3)cc2s1 [NCGC00118500-01] | 15 |
| Cc1ccccc1OCCSc1nc2ccc(NC(=O)c3cccs3)cc2s1 [NCGC00118502-01] | 5.31 |
| COc1cc(C)ccc1OCCSc1nc2ccc(NC(=O)c3ccc(F)cc3)cc2s1 [NCGC00118562-01] | 10.6 |
| COc1cc(C)ccc1OCCSc1nc2ccc(NC(=O)c3cccs3)cc2s1 [NCGC00118564-01] | 13.3 |
| COc1ccc(OCC(=O)NCC2(N3CCN(C)CC3)CCCCC2)cc1 [NCGC00118575-01] | 1.88 |
| Cc1cccc(OCC(=O)NCC2(N3CCN(C)CC3)CCCCC2)c1C [NCGC00118605-01] | 6.68 |
| CN(C(=O)CSc1nc2ccc(NC(=O)CCc3ccccc3)cc2s1)c1ccccc1 [NCGC00118644-01] | 13.3 |
| Cc1ccc(OCCSc2nc3ccc(NC(=O)c4cccs4)cc3s2)cc1 [NCGC00118830-01] | 2.99 |
| Cc1cccc(OCCSc2nc3ccc(NC(=O)c4cccs4)cc3s2)c1 [NCGC00118842-01] | 9.44 |
| Cc1ccc(N(Cc2cccs2)C(=O)C(C)Oc2ccc(Cl)c(C)c2)cc1 (stereo not shown) [NCGC00119071-01] | 7.5 |
| CCCC(O)c1nc2ccccc2n1CCCCOc1ccc(OC)cc1 (stereo not shown) [NCGC00119455-01] | 15 |
| Cc1ccc(-c2noc(-c3ccccc3NC(=O)C3CC(=O)N(c4ccc(C)cc4)C3)n2)cc1 (stereo not shown) [NCGC00119552-01] | 4.22 |
| CCc1c(C)c2ccc(O)c(CN3CCN(c4ccccc4)CC3)c2oc1=O [NCGC00119657-01] | 2.37 |
| COc1ccccc1NC(=O)N1CC(=O)Nc2sc3c(c2C1c1ccccc1)CCCC3 (stereo not shown) [NCGC00120109-01] | 15 |
